Laboratory results from patent US12539292B2, “BRM targeting compounds and associated methods of use” (Arvinas Operations, Inc., priority 2018, dated 2026).
Like-named read-outs stand apart in the source and are kept apart here.

Target: T1, BRM (Homo sapiens, UniProt P51531)
T1 construct: In-Cell Western Screen of BRM Degradation in SW1573 Cells; endogenous in cells; host or cells: SW1573
Experiment: In-cell Western screen of BRM degradation in SW1573 cells (Dmax and DC50)
Type: cell-based
Procedure, shortened: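 SW1573 cells were treated with compound overnight (18-20 h; final DMSO 0.1%), then fixed in 4% PFA, permeabilized with Triton X-100 and blocked. BRM was detected by in-cell Western using 800 nm anti-rabbit and 680 nm anti-mouse secondaries, and Dmax and DC50 were derived from the LI-COR Odyssey signal.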

[1] = SW1573, % degraded, when tested at the top concentration of between 0.3 and 10 μM, read-out: BRM Dmax (%)
[2] = target protein degradation, read-out: BRM DC50
[3] = BRM degradation, SW1573 cells, read-out: DC50
[4] = degradation of BRM, read-out: BRM DC50
[5] = BRM degradation, SW1573 cells, read-out: Dmax (% degraded)
[6] = BRM degradation, SW1573 cells, tested at the top concentration of between 0.3 and 10 μM, read-out: Dmax (%) (% degraded)

T1 sequence (P51531 whole entry): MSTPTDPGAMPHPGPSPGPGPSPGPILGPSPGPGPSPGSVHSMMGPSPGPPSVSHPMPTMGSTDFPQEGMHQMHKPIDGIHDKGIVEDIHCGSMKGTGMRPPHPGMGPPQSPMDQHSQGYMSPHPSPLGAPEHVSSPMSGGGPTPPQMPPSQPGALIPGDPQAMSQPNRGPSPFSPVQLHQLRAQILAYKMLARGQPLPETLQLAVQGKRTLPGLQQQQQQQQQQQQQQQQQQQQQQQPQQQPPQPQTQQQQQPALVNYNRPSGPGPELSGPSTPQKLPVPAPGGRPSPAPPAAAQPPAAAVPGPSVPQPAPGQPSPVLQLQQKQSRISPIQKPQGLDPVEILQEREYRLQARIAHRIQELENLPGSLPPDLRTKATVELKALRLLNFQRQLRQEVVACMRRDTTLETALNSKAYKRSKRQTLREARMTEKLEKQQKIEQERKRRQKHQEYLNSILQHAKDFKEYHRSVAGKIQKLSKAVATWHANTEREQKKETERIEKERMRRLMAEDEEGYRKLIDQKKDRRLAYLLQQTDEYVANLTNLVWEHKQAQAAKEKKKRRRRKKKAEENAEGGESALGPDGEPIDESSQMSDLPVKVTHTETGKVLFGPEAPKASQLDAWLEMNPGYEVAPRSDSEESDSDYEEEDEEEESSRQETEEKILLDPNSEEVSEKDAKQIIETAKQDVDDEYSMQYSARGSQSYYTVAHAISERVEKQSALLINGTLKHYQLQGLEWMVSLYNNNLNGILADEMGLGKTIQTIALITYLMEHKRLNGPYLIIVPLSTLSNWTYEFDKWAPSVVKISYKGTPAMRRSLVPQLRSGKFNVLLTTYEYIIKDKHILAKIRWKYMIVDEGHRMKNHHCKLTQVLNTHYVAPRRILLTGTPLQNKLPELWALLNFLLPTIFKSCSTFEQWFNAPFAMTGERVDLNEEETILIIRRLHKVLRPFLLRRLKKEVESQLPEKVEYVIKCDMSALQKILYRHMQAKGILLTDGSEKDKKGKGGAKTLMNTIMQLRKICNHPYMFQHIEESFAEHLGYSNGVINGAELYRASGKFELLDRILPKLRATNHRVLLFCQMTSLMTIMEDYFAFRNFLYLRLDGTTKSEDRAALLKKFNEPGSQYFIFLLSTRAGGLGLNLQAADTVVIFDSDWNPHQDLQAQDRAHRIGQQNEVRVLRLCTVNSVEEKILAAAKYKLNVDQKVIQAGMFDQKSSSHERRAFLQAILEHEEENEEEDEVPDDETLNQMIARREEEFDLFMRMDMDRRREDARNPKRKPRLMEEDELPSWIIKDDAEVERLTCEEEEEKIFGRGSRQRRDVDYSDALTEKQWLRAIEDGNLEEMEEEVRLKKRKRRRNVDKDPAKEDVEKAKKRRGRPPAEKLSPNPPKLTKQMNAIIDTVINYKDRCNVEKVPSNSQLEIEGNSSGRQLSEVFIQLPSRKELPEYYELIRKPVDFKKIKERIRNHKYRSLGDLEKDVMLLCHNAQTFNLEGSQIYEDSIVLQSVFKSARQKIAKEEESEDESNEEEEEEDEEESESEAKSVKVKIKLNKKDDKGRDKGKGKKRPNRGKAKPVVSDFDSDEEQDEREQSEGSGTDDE

| Compound | Dmax [1] | DC50 [3] | also measured |
| --- | --- | --- | --- |
| COCCOCCOCCOCCOCCOCCOCCOCCOCCOCCOCCOCCOCCOCCOCCOCCOCCOCCOCCOCCOCCOCCOC(=O)CCC(=O)O[C@@H]1C[C@@H](C(=O)N[C@@H](C)c2ccc(-c3scnc3C)cc2)N(C(=O)[C@@H](c2cc(OCCN3CCC(O[C@H]4C[C@H](Oc5cc(N6C7CCC6CN(c6cc(-c8ccccc8O)nnc6N)C7)ccn5)C4)CC3)no2)C(C)C)C1 [compound 460, (3R,5S)-1-((2R)-2-(3-(2-(4-((1r,3R)-3-((4-(3-(3-amino-6-(2-hydroxyphenyl)pyridazin-4-yl)-3,8-diazabicyclo[3.2.1]octan-8-yl)pyridin-2-yl)oxy)cyclobutoxy)piperidin-1-yl)ethoxy)isoxazol-5-yl)-3-methylbutanoyl)-5-(((S)-1-(4-(4-methylthiazol-5-yl)phenyl)ethyl)carbamoyl) pyrrolidin-3-yl (2,5,8,11,14,17,20,23,26,29,32,3 5,38,41,44,47,50,53,56,59,62,65-docosaoxaheptahexacontan-67-yl) succinate] | > 75% | – | DC50 [2]: < 2.5 nM |
| Cc1ncsc1-c1ccc([C@H](C)NC(=O)[C@@H]2C[C@@H](O)CN2C(=O)[C@@H](c2cc(OCCN3CCN(CCC#CCn4cc(-c5cc(-c6ccccc6O)nnc5N)cn4)CC3)no2)C(C)C)cc1 [compound 112, (2S,4R)-1-((R)-2-(3-(2-(4-(5-(4-(3-amino-6-(2-hydroxyphenyl)pyridazin-4-yl)-1H-pyrazol-1-yl)pent-3-yn-1-yl)piperazin-1-yl)ethoxy)isoxazol-5-yl)-3-methylbutanoyl)-4-hydroxy-N-((S)-1-(4-(4-methylthiazol-5-yl)phenyl)ethyl)pyrrolidine-2-carboxamide] | – | < 2.5 nM | Dmax (BRM degradation, SW1573 cells, when tested at the top concentration of between 0.3 and 10 μM, read-out: Dmax (%) (% degraded)): > 75% |
| Cc1ncsc1-c1ccc([C@H](C)NC(=O)[C@@H]2C[C@@H](O)CN2C(=O)[C@@H](c2cc(OC/C=C/c3ncc(O[C@H]4C[C@H](Oc5cc(N6C7CCC6CN(c6cc(-c8ccccc8O)nnc6N)C7)ccn5)C4)cn3)no2)C(C)C)cc1 [compound 392, (2S,4R)-1-((2R)-2-(3-(((E)-3-(5-((1r,3R)-3-((4-(3-(3-amino-6-(2-hydroxyphenyl)pyridazin-4-yl)-3,8-diazabicyclo[3.2.1]octan-8-yl)pyridin-2-yl)oxy)cyclobutoxy)pyrimidin-2-yl)allyl)oxy)isoxazol-5-yl)-3-methylbutanoyl)-4-hydroxy-N-((S)-1-(4-(4-methylthiazol-5-yl)phenyl)ethyl)pyrrolidine-2-carboxamide] | > 75% | – | DC50 [2]: < 2.5 nM |
| Cc1ncsc1-c1ccc([C@H](C)NC(=O)[C@@H]2C[C@@H](O)CN2C(=O)[C@@H](c2cc(OCCN3CCC(O[C@H]4C[C@H](Oc5cccc(N6C7CCC6CN(c6cc(-c8ccccc8O)nnc6N)C7)c5)C4)CC3)no2)C(C)C)cc1 [compound 462, (2S,4R)-1-((2R)-2-(3-(2-(4-((1r,3R)-3-(3-(3-(3-amino-6-(2-hydroxyphenyl)pyridazin-4-yl)-3,8-diazabicyclo[3.2.1]octan-8-yl)phenoxy)cyclobutoxy)piperidin-1-yl)ethoxy)isoxazol-5-yl)-3-methylbutanoyl)-4-hydroxy-N-((S)-1-(4-(4-methylthiazol-5-yl)phenyl)ethyl)pyrrolidine-2-carboxamide] | > 75% | – | DC50 [2]: < 2.5 nM |
| Cc1ncsc1-c1ccc([C@H](C)NC(=O)[C@@H]2C[C@@H](O)CN2C(=O)[C@H](c2cc(OCCN3CCN(CCO[C@H]4C[C@H](Oc5cc(N6C7CCC6CN(c6cc(-c8ccccc8O)nnc6N)C7)ccn5)C4)CC3)no2)C(C)C)cc1 [compound 407, (2S,4R)-1-((2S)-2-(3-(2-(4-(2-((1r,3r)-3-((4-(3-(3-amino-6-(2-hydroxyphenyl)pyridazin-4-yl)-3,8-diazabicyclo[3.2.1]octan-8-yl)pyridin-2-yl)oxy)cyclobutoxy)ethyl)piperazin-1-yl)ethoxy)isoxazol-5-yl)-3-methylbutanoyl)-4-hydroxy-N-((S)-1-(4-(4-methylthiazol-5-yl)phenyl)ethyl)pyrrolidine-2-carboxamide] | – | – | DC50 [4]: > 30 nM |
| Cc1ncsc1-c1ccc([C@H](C)NC(=O)[C@@H]2C[C@@H](O)CN2C(=O)[C@@H](c2cc(N3CCC(CN4CCC(O[C@H]5C[C@@H](N6CCC(C(C)n7cc(-c8cc(-c9ccccc9O)nnc8N)cn7)CC6)C5)CC4)CC3)no2)C(C)C)cc1 (stereo partly drawn) [compound 665, (2S,4R)-1-((2R)-2-(3-(4-((4-((1s,3s)-3-(4-(1-(4-(3-amino-6-(2-hydroxyphenyl)pyridazin-4-yl)-1H-pyrazol-1-yl)ethyl)piperidin-1-yl)cyclobutoxy)piperidin-1-yl)methyl)piperidin-1-yl)isoxazol-5-yl)-3-methylbutanoyl)-4-hydroxy-N-((S)-1-(4-(4-methylthiazol-5-yl)phenyl)ethyl)pyrrolidine-2-carboxamide] | – | < 2.5 nM | Dmax [5]: > 75% |
| CC(C)[C@H](C(=O)N1C[C@H](O)C[C@H]1C(=O)N[C@@H](C)c1ccc(C#N)cc1)c1cc(OCCN2CCC(O[C@H]3C[C@H](Oc4cc(N5C6CCC5CN(c5cc(-c7ccccc7O)nnc5N)C6)ccn4)C3)CC2)no1 [compound 204, (2S,4R)-1-((2S)-2-(3-(2-(4-((1r,3S)-3-((4-(3-(3-amino-6-(2-hydroxyphenyl)pyridazin-4-yl)-3,8-diazabicyclo[3.2.1]octan-8-yl)pyridin-2-yl)oxy)cyclobutoxy)piperidin-1-yl)ethoxy)isoxazol-5-yl)-3-methylbutanoyl)-N-((S)-1-(4-cyanophenyl)ethyl)-4-hydroxypyrrolidine-2-carboxamide] | – | > 30 nM | Dmax [6]: > 75% |
| Cc1ncoc1-c1ccc([C@H](C)NC(=O)[C@@H]2C[C@@H](O)CN2C(=O)[C@@H](c2cc(N3CCC(CN4CCC(O[C@H]5C[C@H](Oc6cc(N7C8CCC7CN(c7cc(-c9ccccc9O)nnc7N)C8)ccn6)C5)CC4)CC3)no2)C(C)C)cc1 [compound 674, (2S,4R)-1-((2R)-2-(3-(4-((4-((1r,3r)-3-((4-(3-(3-amino-6-(2-hydroxyphenyl)pyridazin-4-yl)-3,8-diazabicyclo[3.2.1]octan-8-yl)pyridin-2-yl)oxy)cyclobutoxy)piperidin-1-yl)methyl)piperidin-1-yl)isoxazol-5-yl)-3-methylbutanoyl)-4-hydroxy-N-((S)-1-(4-(4-methyloxazol-5-yl)phenyl)ethyl)pyrrolidine-2-carboxamide] | – | < 2.5 nM | Dmax [5]: > 75% |
| Cc1ncsc1-c1ccc([C@H](C)NC(=O)[C@@H]2C[C@@H](O)CN2C(=O)[C@@H](c2cc(OCC(F)(F)CN3CCC(O[C@H]4C[C@H](Oc5cc(N6C7CCC6CN(c6cc(-c8ccccc8O)nnc6N)C7)ccn5)C4)CC3)no2)C(C)C)cn1 [compound 422, (2S,4R)-1-((2R)-2-(3-(3-(4-((1r,3R)-3-((4-(3-(3-amino-6-(2-hydroxyphenyl)pyridazin-4-yl)-3,8-diazabicyclo[3.2.1]octan-8-yl)pyridin-2-yl)oxy)cyclobutoxy)piperidin-1-yl)-2,2-difluoropropoxy)isoxazol-5-yl)-3-methylbutanoyl)-4-hydroxy-N-((S)-1-(6-(4-methylthiazol-5-yl)pyridin-3-yl)ethyl)pyrrolidine-2-carboxamide] | > 75% | – | DC50 [4]: < 2.5 nM |
| COc1cc(-c2scnc2C)ccc1CNC(=O)[C@@H]1C[C@@H](O)CN1C(=O)[C@@H](c1cc(OCCN2CCC(O[C@H]3C[C@H](Oc4cc(N5C6CCC5CN(c5cc(-c7ccccc7O)nnc5N)C6)ccn4)C3)CC2)no1)C(C)C [compound 215, (2S,4R)-1-((2R)-2-(3-(2-(4-((1r,3R)-3-((4-(3-(3-amino-6-(2-hydroxyphenyl)pyridazin-4-yl)-3,8-diazabicyclo[3.2.1]octan-8-yl)pyridin-2-yl)oxy)cyclobutoxy)piperidin-1-yl)ethoxy)isoxazol-5-yl)-3-methylbutanoyl)-4-hydroxy-N-(2-methoxy-4-(4-methylthiazol-5-yl)benzyl)pyrrolidine-2-carboxamide] | – | < 2.5 nM | Dmax [6]: > 75% |
| CC(C)C(C(=O)N1C[C@H](O)C[C@H]1C(=O)N[C@@H](C)c1ccc(-c2scnc2CN(C)C)cc1)c1cc(OCCN2CCN(CCOc3cc(N4C5CCC4CN(c4cc(-c6ccccc6O)nnc4N)C5)ccn3)CC2)no1 (stereo partly drawn) [compound 167, (2S,4R)-1-(2-(3-(2-(4-(2-((4-(3-(3-amino-6-(2-hydroxyphenyl)pyridazin-4-yl)-3,8-diazabicyclo[3.2.1]octan-8-yl)pyridin-2-yl)oxy)ethyl)piperazin-1-yl)ethoxy)isoxazol-5-yl)-3-methylbutanoyl)-N-((S)-1-(4-(4-((dimethylamino)methyl)thiazol-5-yl)phenyl)ethyl)-4-hydroxypyrrolidine-2-carboxamide] | – | 10 to 30 nM | Dmax [6]: > 75% |
| Cc1ncsc1-c1ccc([C@H](C)NC(=O)[C@@H]2C[C@@H](O)CN2C(=O)[C@H](c2cc(OCCN3CCN(CC#CCN4CCOC5(CCN(c6cc(-c7ccccc7O)nnc6N)CC5)C4)CC3)no2)C(C)C)cc1 [compound 187, (2S,4R)-1-((S)-2-(3-(2-(4-(4-(9-(3-amino-6-(2-hydroxyphenyl)pyridazin-4-yl)-1-oxa-4,9-diazaspiro[5.5]undecan-4-yl)but-2-yn-1-yl)piperazin-1-yl)ethoxy)isoxazol-5-yl)-3-methylbutanoyl)-4-hydroxy-N-((S)-1-(4-(4-methylthiazol-5-yl)phenyl)ethyl)pyrrolidine-2-carboxamide] | – | > 30 nM | – |
